Measured values published in patent publication US5824653A, “Anthelmintic compositions for equidae” (priority 1994, dated 1998).

Columns and labels:
[1] = tested on: Strongylidase; assay: Trial 1: modified critical test, efficacy against Strongylidase in horses; type: in vivo; settings: Trial 1, horses
Experimental: (§1) The method of evaluating the activity of the formulation was a modified critical test (Lyons et al., 1986) which involved killing the horses 24 hours after treatment.
(§2) Efficacy is the number of worms count dead and removed versus the number of worms count alive and not removed (scolex attached for Anaplocephala perfoliata).
(§3) A trial involving abamectin paste (1 ml per 20 kg of body weight equivalent to 0.2 mg of Abamectin per kg B.W.), praziquantel paste (0.1 to 5 mg of Praziquantel per kg of body weight), and formulations in accordance with examples 1,2,3,4 and 5.
(§4) Eleven groups of ten horses per group were involved in the study. Area of origin of the horses was well known for having internal parasitism problem and specifically tapeworms (Anoplocephala perfoliata) infestation.

[2] = tested on: Gasterophilus spp.; assay: Trial 1: modified critical test, efficacy against Gasterophilus spp. in horses; type: in vivo; settings: Trial 1, horses
Experimental: as §1, §2, §3, §4

[3] = tested on: Parascaris equorum; assay: Trial 1: modified critical test, efficacy against Parascaris equorum in horses; type: in vivo; settings: Trial 1, horses
Experimental: as §1, §2, §3, §4

[4] = tested on: Anoplocephala perfoliata; assay: Trial 1: modified critical test, efficacy against Anoplocephala perfoliata in horses; type: in vivo; settings: Trial 1, horses
Experimental: as §1, §2, §3, §4

[5] = tested on: Strongylidase; assay: Trial 2: modified critical test, efficacy against Strongylidase in horses; type: in vivo; settings: Trial 2, horses
Experimental: as §1, §2
(§5) A trial involving Ivermectin drench (1 ml per 10 kg of body weight equivalent to 0.2 mg of Ivermectin per kg B.W.), praziquantel drench (0.5 to 2 mg of praziquantel per kg of body weight), and formulations in accordance with Examples 6, 7 and 8.
(§6) Seven groups of 6 horses per group were involved in the study. Area of origin of the horses was well known for having internal parasitism problem and specifically tapeworms (Anoplocephala perfoliata) infestation.

[6] = tested on: Gasterophilus spp.; assay: Trial 2: modified critical test, efficacy against Gasterophilus spp. in horses; type: in vivo; settings: Trial 2, horses
Experimental: as §1, §2, §5, §6

[7] = tested on: Parascaris equorum; assay: Trial 2: modified critical test, efficacy against Parascaris equorum in horses; type: in vivo; settings: Trial 2, horses
Experimental: as §1, §2, §5, §6

[8] = tested on: Anoplocephala perfoliata; assay: Trial 2: modified critical test, efficacy against Anoplocephala perfoliata in horses; type: in vivo; settings: Trial 2, horses
Experimental: as §1, §2, §5, §6

[9] = Biodisponibility of praziquantel in horses; type: in vivo; settings: paste formula
[10] = cited from earlier work

Abamectin
100%: % Efficacy Strongylidase ([1]; abamectin 0.2 mg/kg) | % Efficacy Gasterophilus spp. ([2]; abamectin 0.2 mg/kg) | % Efficacy Parascaris equorum ([3]; abamectin 0.2 mg/kg)
0%: % Efficacy Anoplocephala perfoliata ([4]; abamectin 0.2 mg/kg)

CC[C@H](C)[C@H]1O[C@]2(CC[C@@H]1C)C[C@@H]1C[C@@H](C/C=C(\C)[C@@H](O[C@H]3C[C@H](OC)[C@@H](O[C@H]4C[C@H](OC)[C@@H](O)[C@H](C)O4)[C@H](C)O3)[C@@H](C)/C=C/C=C3\CO[C@@H]4[C@H](O)C(C)=C[C@@H](C(=O)O1)[C@]34O)O2 [Ivermectin]
0%: % Efficacy Anoplocephala perfoliata ([8]; ivermectin 0.2 mg/kg)
100%: % Efficacy Strongylidase ([5]; ivermectin 0.2 mg/kg) | % Efficacy Gasterophilus spp. ([6]; ivermectin 0.2 mg/kg) | % Efficacy Parascaris equorum ([7]; ivermectin 0.2 mg/kg)

O=C(C1CCCCC1)N1CC(=O)N2CCc3ccccc3C2C1 (stereo not drawn) [Praziquantel, 2(cyclohexylcarbonyl)-1,2,3,6,7,11b-hexahydro-4H-pyrazino[2,1-a]isoquinolin-4-one]
51%: % Efficacy Anoplocephala perfoliata ([4]; praziquantel 1 mg/kg)
71%: % Efficacy Anoplocephala perfoliata ([4]; praziquantel 2 mg/kg)
33%: % Efficacy Anoplocephala perfoliata ([4]; praziquantel 5 mg/kg)
59%: % Efficacy Anoplocephala perfoliata ([8]; praziquantel 2 mg/kg)
0%: % Efficacy Strongylidase ([1]; praziquantel 0.1 mg/kg) | % Efficacy Strongylidase ([1]; praziquantel 0.5 mg/kg) | % Efficacy Strongylidase ([1]; praziquantel 1 mg/kg) | % Efficacy Strongylidase ([1]; praziquantel 2 mg/kg) | % Efficacy Strongylidase ([1]; praziquantel 5 mg/kg) | % Efficacy Gasterophilus spp. ([2]; praziquantel 0.1 mg/kg) | % Efficacy Gasterophilus spp. ([2]; praziquantel 0.5 mg/kg) | % Efficacy Gasterophilus spp. ([2]; praziquantel 1 mg/kg) | % Efficacy Gasterophilus spp. ([2]; praziquantel 2 mg/kg) | % Efficacy Gasterophilus spp. ([2]; praziquantel 5 mg/kg) | % Efficacy Parascaris equorum ([3]; praziquantel 0.1 mg/kg) | % Efficacy Parascaris equorum ([3]; praziquantel 0.5 mg/kg) | % Efficacy Parascaris equorum ([3]; praziquantel 1 mg/kg) | % Efficacy Parascaris equorum ([3]; praziquantel 2 mg/kg) | % Efficacy Parascaris equorum ([3]; praziquantel 5 mg/kg) | % Efficacy Anoplocephala perfoliata ([4]; praziquantel 0.1 mg/kg) | % Efficacy Strongylidase ([5]; praziquantel 0.5 mg/kg) | % Efficacy Strongylidase ([5]; praziquantel 1 mg/kg) | % Efficacy Strongylidase ([5]; praziquantel 2 mg/kg) | % Efficacy Gasterophilus spp. ([6]; praziquantel 0.5 mg/kg) | % Efficacy Gasterophilus spp. ([6]; praziquantel 1 mg/kg) | % Efficacy Gasterophilus spp. ([6]; praziquantel 2 mg/kg) | % Efficacy Parascaris equorum ([7]; praziquantel 0.5 mg/kg) | % Efficacy Parascaris equorum ([7]; praziquantel 1 mg/kg) | % Efficacy Parascaris equorum ([7]; praziquantel 2 mg/kg)
43%: % Efficacy Anoplocephala perfoliata ([8]; praziquantel 1 mg/kg)
21%: % Efficacy Anoplocephala perfoliata ([8]; praziquantel 0.5 mg/kg)
27%: % Efficacy Anoplocephala perfoliata ([4]; praziquantel 0.5 mg/kg)
relatively insoluble: solubility in water [10]
better biodisponibility: biodisponibility of praziquantel [9]
